Assay results published in ChEMBL document CHEMBL1130954, “Design and synthesis of analogs of vitamin E: antiproliferative activity against human breast adenocarcinoma cells” (Bioorg Med Chem Lett, 1998).

system: MCF7; assay: Compound was tested for antiproliferative activity against human breast cancer cell line MCF-7 in MTT assay; assay type: functional, cell-based

Question: How did the IC50 turn out when `CC(=O)Oc1c(C)c(C)c2c(c1C)CC[C@@](C)(CCC[C@H](C)CCC[C@H](C)CCCC(C)C)O2` was run?
Answer: > 500 µM

Question: For `CCCCC(=O)OCC1(C)CCc2c(C)c(OC(=O)[C@@H](N)CCCCN)c(C)c(C)c2O1` (some centres undefined), which IC50 is on record?
Answer: 15 µM

Question: `Cc1c(C)c2c(c(C)c1OC(=O)[C@@H](N)CCCCN)CC[C@@](C)(CCC[C@H](C)CCC[C@H](C)CCCC(C)C)O2` was tested. Which IC50 did it give?
Answer: 12 µM

Question: Which IC50 does the source give for `CCCCCOCC1(C)CCc2c(C)c(OC(=O)[C@@H](N)CCCCN)c(C)c(C)c2O1` (some centres undefined) here?
Answer: 22 µM

Question: `Cc1c(C)c2c(c(C)c1OC(=O)[C@@H](N)CCCCN)CCC(C)(CO)O2` (some centres undefined) was tested. Which IC50 did it give?
Answer: 194 µM

Question: Which IC50 does the source give for `Cc1c(C)c2c(c(C)c1OC(=O)[C@@H](N)CCCCN)CCC(C)(COC(=O)CCC(C)[C@H]1CC[C@H]3[C@@H]4[C@H](O)C[C@@H]5C[C@H](O)CC[C@]5(C)[C@H]4C[C@H](O)[C@]13C)O2` (some centres undefined) here?
Answer: 4 µM

Question: `Cc1c(C)c2c(c(C)c1OC(=O)CCC(=O)O)CC[C@@](C)(CCC[C@H](C)CCC[C@H](C)CCCC(C)C)O2` [(+)-ALPHA-TOCOPHERYL SUCCINATE] was tested. Which IC50 did it give?
Answer: > 368 µM

Question: Which IC50 does the source give for `Cc1c(C)c2c(c(C)c1O)CC[C@@](C)(CCC[C@H](C)CCC[C@H](C)CCCC(C)C)O2` [ALPHA-TOCOPHEROL] here?
Answer: 329 µM

Question: Which IC50 does the source give for `Cc1c(C)c2c(c(C)c1O)CCC(C)(C(=O)O)O2` (centres undefined) [TROLOX] here?
Answer: 1460 µM
